According to patent publication EP4818171A1 (Apeiron Therapeutics (Hong Kong) Ltd., priority 2024, dated 2025):
Where two headings read alike, the source gives them in different places.

How the values were obtained:
[1] = tested on: LU99 MTAP overexpressing cells; test: Inhibitory activity on proliferation of LU99 MTAP overexpressing cells (Cell-Titer Glo); format: cell-based; details: Homo sapiens, Lu-99, 144 h, 6 d incubation
Protocol: Materials and cells: LU99 MTAP overexpressing cell line was purchased from Kyinno Biotechnology (China); cell culture medium and fetal bovine serum were purchased from Thermo Fisher Scientific (USA); 384-well plates were purchased from PerkinElmer (USA); Cell-Titer Glo kits were purchased from Promega (USA).
Cell culture: LU99 MTAP overexpressing cells were cultured with medium containing 10% fetal bovine serum at 37°C in 5% carbon dioxide. Only cells in the logarithmic growth phase could be used for the test.
Test of inhibitory activity on cell proliferation: The Cell-Titer Glo kit was used to test the proliferation inhibitory activity of the compounds on LU99 MTAP overexpressing cells. The cell concentration was adjusted, rendering that cells were inoculated into a 384-well plate at 40 µL per well and incubated overnight at 37°C and 5% carbon dioxide. 40 nL of the compound was added to each well to reach a final concentration of 0-10,000 nM (starting concentration 10,000 nM, 2.5-fold dilution, 10 points), and the cell plate with 0.2% DMSO content was incubated at 37°C and 5% carbon dioxide for 6 d. 40 µL of Cell-Titer Glo reagent was added to test cell viability.

HCT-116 wild-type cells = test: Inhibitory activity on proliferation of HCT-116 wild-type cells (Cell-Titer Glo); format: cell-based; details: Homo sapiens, 8 d incubation
Protocol: Cell culture: HCT-116 wild-type cells were cultured with a RPMI-1640 medium containing 10% fetal bovine serum+1% penicillin-streptomycin at 37°C in 5% carbon dioxide. Only cells in the logarithmic growth phase could be used for the test.
Test of cell proliferation activity: Cell-Titer Glo kit was used to test the proliferation inhibitory activity of the compound on HCT-116 wild-type cells. The cell concentration was adjusted, rendering that cells were inoculated into a 384-well plate at 40 µL per well and incubated overnight at 37°C and 5% carbon dioxide. 40 nL of the compound was added to each well to reach a final concentration of 0-10,000 nM (starting concentration 10,000 nM, 2-fold dilution, 10 points), and the cell plate with 0.1% DMSO content was incubated at 37°C and 5% carbon dioxide for 8 d. 40 µL of Cell-Titer Glo reagent was added to test cell viability.

[2] = tested on: LU99 MTAP(-/-)deleted cells; test: Inhibitory activity on proliferation of LU99 MTAP(-/-)deleted cells (Cell-Titer Glo); details: Homo sapiens, Lu-99, 144 h
Protocol: Materials and cells: LU99 MTAP deleted cell line was purchased from Kyinno Biotechnology (China); cell culture medium and fetal bovine serum were purchased from Thermo Fisher Scientific (USA); 384-well plates were purchased from PerkinElmer (USA); Cell-Titer Glo kits were purchased from Promega (USA). Cell culture: LU99 MTAP(-/-)deleted cells were cultured with medium containing 10% fetal bovine serum at 37°C in 5% carbon dioxide. Only cells in the logarithmic growth phase could be used for the test.
Test of inhibitory activity on cell proliferation: The Cell-Titer Glo kit was used to test the proliferation inhibitory activity of the compounds on LU99 MTAP(-/-)deleted cells. The cell concentration was adjusted, rendering that cells were inoculated into a 384-well plate at 40 µL per well and incubated overnight at 37°C and 5% carbon dioxide. […] 40 µL of Cell-Titer Glo reagent was added to test cell viability.

[3] = tested on: HCT-116 MTAP(-/-)deleted cells; test: Inhibitory activity on proliferation of HCT-116 MTAP(-/-)deleted cells (Cell-Titer Glo); details: Homo sapiens, HCT-116, 192 h
Protocol: Only cells in the logarithmic growth phase could be used for the test. […] The cell concentration was adjusted, rendering that cells were inoculated into a 384-well plate at 40 µL per well and incubated overnight at 37°C and 5% carbon dioxide. 40 nL of the compound was added to each well to reach a final concentration of 0-10,000 nM (starting concentration 10,000 nM, 3-fold dilution, 10 points), and the cell plate with 0.1% DMSO content was incubated at 37°C and 5% carbon dioxide for 8 d. 40 µL of Cell-Titer Glo reagent was added to test cell viability.

[4] = read-out: IC50 (nM) Lu99 MTAP(-/-)Deleted, LU99 MTAP(-/-)deleted cells, 6 d incubation, Cell-Titer Glo
[5] = read-out: IC50 (nM) HCT-116 MTAP(-/-)deleted
[6] = read-out: IC50 (nM) HCT-116 MTAP(-/-)deleted, HCT-116 MTAP(-/-)deleted cells, 8 d incubation, Cell-Titer Glo

| SMILES | IC50 (HCT-116 wild-type cells; HCT-116, 192 h) [nM] | IC50 [3, 5] [nM] | IC50 [3, 6] [nM] | IC50 [1] [nM] | IC50 [2, 4] [nM] | IC50 (HCT-116 wild-type cells; 192 h) [nM] | IC50 ([2]; read-out: IC50 (nM) Lu99 MTAP(-/-)Deleted) [nM] |
| --- | --- | --- | --- | --- | --- | --- | --- |
| CN(C(=O)c1cc2c(cc1F)nc(N)c1cncn12)C1COC2(CCC2)c2cc(C(F)(F)F)ccc21 (stereo not shown) [Example 13, 4-Amino-7-fluoro-N-methyl-N-(7'-(trifluoromethyl)spiro[cyclobutane-1,1'-isochroman]-4'-yl)imidazo[1,5-a]quinoxaline-8-carboxamide] | 597 | 5.3 | – | 773 | 7.8 | – | – |
| Cn1cc(N(C(=O)c2ccc3nc(N)c4cncn4c3c2)C2COC3(CCC3)c3cc(C(F)(F)F)ccc32)cn1 (stereo not shown) [Example 17, 4-Amino-N-(1-methyl-1H-pyrazol-4-yl)-N-(7'-(trifluoromethyl)spiro[cyclobutane-1,1'-isochroman]-4'-yl)imidazo[1,5-a]quinoxaline-8-carboxamide] | 324 | 5.17 | – | 104 | 4.5 | – | – |
| Cc1ncc2c(N)nc3cc(F)c(C(=O)N(C)C4COC5(CCOCC5)c5cc(C(F)(F)F)ccc54)cc3n12 (stereo not shown) [Example 19, 4-Amino-7-fluoro-N,1-dimethyl-N-(7-(trifluoromethyl)-2',3',5',6'-tetrahydrospiro[isochroman-1,4'-pyran]-4-yl)imidazo[1,5-a]quinoxaline-8-carboxamide] | 2710 | 21.7 | – | 1390 | 31.3 | – | – |
| CN(C(=O)c1ccc2nc(N)c3cncn3c2c1)C1COC2(CCC2)c2cc(N3CCOCC3)ncc21 (stereo not shown) [Example 28, 4-Amino-N-methyl-N-(7'-morpholinyl-3',4'-dihydrospiro[cyclobutane-1,1'-pyrano[4,3-c]pyridine]-4'-yl)imidazo[1,5-a]quinoxaline-8-carboxamide] | > 10000 | – | 110 | 3880 | 88.5 | – | – |
| CN(C(=O)c1ccc2nc(N)c3cncn3c2c1)[C@@H]1COC2(CCC2)c2cc(N3CC[Si](C)(C)CC3)ncc21 [Example 34] | – | 40 | – | 1430 | – | 5250 | 41.5 |
| CN(C(=O)c1ccc2nc(N)c3cncn3c2c1)[C@@H]1COC2(CCC2)c2cc(N3C4COCC3C4)ncc21 [Example 48, N-((4'S)-7'-(3-oxa-6-azabicyclo[3.1.1]heptane-6-yl)-3',4'-dihydrospiro[cyclobutane-1,1'-pyrano[4,3-c]pyridine]-4'-yl)-4-amino-N-methylimidazo[1,5-a]quinoxaline-8-carboxamide] | > 20000 | 144 | – | 10600 | 150 | – | – |
| Cc1ncn2c1c(N)nc1cc(F)c(C(=O)N(C)C3COC4(CCCOC4)c4cc(C(F)(F)F)ccc43)cc12 (stereo not shown) [Example 52, 4-Amino-7-fluoro-N,3-dimethyl-N-(7-(trifluoromethyl)-5',6'-dihydro-2'H,4'H-pyran[isochroman-1,3'-pyran]-4-yl)imidazo[1,5-a]quinoxaline-8-carboxamide] | 602 | 8.06 | – | 539 | 14.9 | – | – |
| CN(C(=O)c1ccc2nc(N)c3cncn3c2c1)[C@@H]1COC(C)(C)c2cc(N3CCOCC3)ccc21 [Example 98, (S)-4-amine-N-(1,1-dimethyl-7-morpholinoisochroman-4-yl)-N-methylimidazo[1,5-a]quinoxaline-8-carboxamide] | > 10000 | 47.9 | – | 8100 | 57.5 | – | – |

More lines, main results first:

| IC50 (HCT-116 wild-type cells; HCT-116, 192 h) [nM] | IC50 [3, 5] [nM] | IC50 [3, 6] [nM] | SMILES | IC50 [1] [nM] | IC50 [2, 4] [nM] | IC50 (HCT-116 wild-type cells; 192 h) [nM] | IC50 ([2]; read-out: IC50 (nM) Lu99 MTAP(-/-)Deleted) [nM] |
| --- | --- | --- | --- | --- | --- | --- | --- |
| 2220 | 6.5 | – | CN(C(=O)c1ccc2nc(N)c3cncn3c2c1)C1COC2(CCCC2)c2cc(C(F)(F)F)ccc21 (stereo not shown) [Example 9, 4-Amino-N-methyl-N-(7'-(trifluoromethyl)spiro[cyclopentane-1,1'-isochroman]-4'-yl)imidazo[1,5-a]quinoxaline-8-carboxamide] | 1980 | 10.9 | – | – |
| 1730 | 7.64 | – | CN(C(=O)c1ccc2nc(N)c3cncn3c2c1)C1COC2(CCOCC2)c2cc(C(F)(F)F)ccc21 (stereo not shown) [Example 12, 4-Amino-N-methyl-N-(7'-(trifluoromethyl)-2',3',5',6'-tetrahydrospiro[isochroman-1,4'-pyran]-4-yl)imidazo[1,5-a]quinoxaline-8-carboxamide] | 1640 | 8.8 | – | – |
| 1610 | 5.9 | – | CN(C(=O)c1cc2c(cc1F)nc(N)c1cncn12)C1COC2(CCOCC2)c2cc(C(F)(F)F)ccc21 (stereo not shown) [Example 16, 4-Amino-7-fluoro-N-methyl-N-(7-(trifluoromethyl)-2',3',5',6'-tetrahydrospiro[isochroman-1,4'-pyran]-4-yl)imidazo[1,5-a]quinoxaline-8-carboxamide] | 1290 | 10.8 | – | – |
| 920 | 9.46 | – | Cc1ncn2c1c(N)nc1cc(F)c(C(=O)N(C)C3COC4(CCOCC4)c4cc(C(F)(F)F)ccc43)cc12 (stereo not shown) [Example 20, 4-Amino-7-fluoro-N,3-dimethyl-N-(7-(trifluoromethyl)-2',3',5',6'-tetrahydrospiro[isochroman-1,4'-pyran]-4-yl)imidazo[1,5-a]quinoxaline-8-carboxamide] | 1070 | 20.5 | – | – |
| > 20000 | – | > 1000 | CN(C(=O)c1ccc2nc(N)c3cncn3c2c1)[C@@H]1COC2(CCC2)c2cc(N3CCNCC3)ncc21 [Example 21, (S)-4-amino-N-methyl-N-(7'-(piperazin-1-yl)-3'-,4'-dihydrospiro[cyclobutane-1,1'-pyrano[4,3-c]pyridine]-4'-yl)imidazo[1,5-a]quinoxaline-8-carboxamide] | 12500 | > 1000 | – | – |
| 4520 | 51.5 | – | CN(C(=O)c1ccc2nc(N)c3cncn3c2c1)C1COC2(CCC3(CC3)CC2)c2cc(C(F)(F)F)ccc21 (stereo not shown) [Example 23] | 3970 | 66.1 | – | – |
| 7050 | 34.1 | – | CN(C(=O)c1ccc2nc(N)c3cncn3c2c1)[C@@H]1COC2(CCC2)c2cc(-n3cc(C(F)(F)F)cn3)ncc21 [Example 45, (S)-4-amino-N-methyl-N-(7'-(4-(trifluoromethyl)-1H-pyrazol-1-yl)-3',4'-dihydrospiro[cyclobutane-1,1'-pyrano[4,3-c]pyridine]-4'-yl)imidazo[1,5-a]quinoxaline-8-carboxamide] | 4710 | 30.2 | – | – |
| 1830 | 8.02 | – | Cc1ncc2c(N)nc3cc(F)c(C(=O)N(C)C4COC5(CCCOC5)c5cc(C(F)(F)F)ccc54)cc3n12 (stereo not shown) [Example 51, 4-Amino-7-fluoro-N,1-dimethyl-N-(7-(trifluoromethyl)-5',6'-dihydro-2'H,4'H-pyran[isochroman-1,3'-pyran]-4-yl)imidazo[1,5-a]quinoxaline-8-carboxamide] | 1320 | 14 | – | – |
| 7590 | 419 | – | CN(C(=O)c1ccc2nc(N)c3cncn3c2c1)[C@H]1COC2(CC2)c2cc(C(F)(F)F)ccc21 [Example 53, (R)-4-amino-N-methyl-N-(7'-(trifluoromethyl)spiro[cyclopropane-1,1'-isochroman]-4'-yl)imidazo[1,5-a]quinoxaline-8-carboxamide] | 1750 | 682 | – | – |
| 902 | 5.2 | – | CN(C(=O)c1ccc2nc(N)c3cncn3c2c1)[C@@H]1COC2(CCOCC2)c2cc(C(F)(F)F)ccc21 [Example 100, (S)-4-amino-N-methyl-N-(7'-(trifluoromethyl)-2',3',5',6'-tetrahydrospiro[isochroman-1,4'-pyran]-4-yl)imidazo[1,5-a]quinoxaline-8-carboxamide] | 938 | 8.5 | – | – |
| 9490 | 403 | – | CN(C(=O)c1ccc2nc(N)c3cncn3c2c1)[C@H]1COC2(CCOCC2)c2cc(C(F)(F)F)ccc21 [Example 101, (R)-4-amino-N-methyl-N-(7'-(trifluoromethyl)-2',3',5',6'-tetrahydrospiro[isochroman-1,4'-pyran]-4-yl)imidazo[1,5-a]quinoxaline-8-carboxamide] | 5640 | > 1000 | – | – |
